Laboratory results reported in PubChem BioAssay (NCI).
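Interpolation was linear, between the two tested concentrations surrounding the appropriate level; five concentrations were tested over 48 hours in 96-well plates. TGI is the concentration that stops growth completely.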 *1 amine or outer side, *2 acyl side, *3 side chain or, on linkers, in order; H or OH if unused. Where a SMILES comes first, the peptide text is derived from it. [ ]: non-standard residue; d: D form. The star is where a group is joined. ξ: configuration not given here. X53 = CC(C)C[C@H](N[*:1])C1=N[C@H](C(=O)[*:2])CS1; Ile(3ξ) = CCC(C)[C@H](N)C(=O)O; Allyl(1,1-Me2) = C=CC(C)(C)*

Assays:
Assay in all cases: growth of human tumour cells (NCI), 48 h
HCC-2998 colon = test system: HCC-2998 colon
SF-268 CNS = test system: SF-268 CNS
RXF 393 renal = test system: RXF 393 renal
PC-3 prostate = test system: PC-3 prostate
U251 CNS = test system: U251 CNS
CCRF-CEM leukemia = test system: CCRF-CEM leukemia
BT-549 breast = test system: BT-549 breast
NCI-H23 lung = test system: NCI-H23 lung
MALME-3M melanoma = test system: MALME-3M melanoma
M14 melanoma = test system: M14 melanoma
SF-539 CNS = test system: SF-539 CNS
SNB-75 CNS = test system: SNB-75 CNS
KM12 colon = test system: KM12 colon
CAKI-1 renal = test system: CAKI-1 renal
DU-145 prostate = test system: DU-145 prostate
A498 renal = test system: A498 renal
HS 578T breast = test system: HS 578T breast
EKVX NSCLC = test system: EKVX NSCLC
NCI-H460 lung = test system: NCI-H460 lung
MDA-MB-231 breast = test system: MDA-MB-231 breast
SK-MEL-5 melanoma = test system: SK-MEL-5 melanoma
OVCAR-4 ovarian = test system: OVCAR-4 ovarian
NCI-H226 lung = test system: NCI-H226 lung
LOX IMVI melanoma = test system: LOX IMVI melanoma
MCF7 breast = test system: MCF7 breast
COLO 205 colon = test system: COLO 205 colon
NCI-H522 lung = test system: NCI-H522 lung
HOP-92 NSCLC = test system: HOP-92 NSCLC
UO-31 renal = test system: UO-31 renal
ACHN renal = test system: ACHN renal
UACC-62 melanoma = test system: UACC-62 melanoma
MDA-N = test system: MDA-N
IGROV1 ovarian = test system: IGROV1 ovarian
HCT-116 colon = test system: HCT-116 colon
HCT-15 colon = test system: HCT-15 colon
K-562 leukemia = test system: K-562 leukemia
RPMI-8226 leukemia = test system: RPMI-8226 leukemia
T-47D breast = test system: T-47D breast
TK-10 renal = test system: TK-10 renal
NCI/ADR-RES ovarian = test system: NCI/ADR-RES ovarian
OVCAR-5 ovarian = test system: OVCAR-5 ovarian
HOP-62 NSCLC = test system: HOP-62 NSCLC
HT29 colon = test system: HT29 colon
SK-MEL-2 melanoma = test system: SK-MEL-2 melanoma
SF-295 CNS = test system: SF-295 CNS
MDA-MB-435 = test system: MDA-MB-435
HL-60(TB) leukemia = test system: HL-60(TB) leukemia
OVCAR-3 ovarian = test system: OVCAR-3 ovarian
SNB-19 CNS = test system: SNB-19 CNS
UACC-257 melanoma = test system: UACC-257 melanoma
OVCAR-8 ovarian = test system: OVCAR-8 ovarian
SK-OV-3 ovarian = test system: SK-OV-3 ovarian
MOLT-4 leukemia = test system: MOLT-4 leukemia
SR leukemia = test system: SR leukemia
786-0 renal = test system: 786-0 renal
SN12C renal = test system: SN12C renal
A549 NSCLC = test system: A549 NSCLC
SW-620 colon = test system: SW-620 colon
SK-MEL-28 melanoma = test system: SK-MEL-28 melanoma

C=CC(C)(C)OC[C@@H]1NC(=O)CNC(=O)[C@@H]2CCCN2C(=O)[C@H](C(C)CC)NC(=O)[C@@H]2CSC(=N2)[C@H](CC(C)C)NC1=O (stereo partly specified) (cyclo(GS(Allyl(1,1-Me2))[X53][Ile(3ξ)]P))
TGI (HCC-2998 colon): > 100 µM
TGI (SF-268 CNS): > 100 µM
TGI (RXF 393 renal): > 100 µM
TGI (PC-3 prostate): > 100 µM
TGI (U251 CNS): > 100 µM
TGI (CCRF-CEM leukemia): > 100 µM
TGI (BT-549 breast): > 100 µM
TGI (NCI-H23 lung): > 100 µM
TGI (MALME-3M melanoma): > 100 µM
TGI (M14 melanoma): > 100 µM
TGI (SF-539 CNS): > 100 µM
TGI (SNB-75 CNS): > 100 µM
TGI (KM12 colon): > 100 µM
TGI (CAKI-1 renal): > 100 µM
TGI (DU-145 prostate): > 100 µM
TGI (A498 renal): > 100 µM
TGI (HS 578T breast): > 100 µM
TGI (EKVX NSCLC): > 100 µM
TGI (NCI-H460 lung): > 100 µM
TGI (MDA-MB-231 breast): > 100 µM
TGI (SK-MEL-5 melanoma): > 100 µM
TGI (OVCAR-4 ovarian): > 100 µM
TGI (NCI-H226 lung): > 100 µM
TGI (LOX IMVI melanoma): > 100 µM
TGI (MCF7 breast): > 100 µM
TGI (COLO 205 colon): > 100 µM
TGI (NCI-H522 lung): > 100 µM
TGI (HOP-92 NSCLC): > 100 µM
TGI (UO-31 renal): > 100 µM
TGI (ACHN renal): > 100 µM
TGI (UACC-62 melanoma): > 100 µM
TGI (MDA-N): > 100 µM
TGI (IGROV1 ovarian): > 100 µM
TGI (HCT-116 colon): > 100 µM
TGI (HCT-15 colon): > 100 µM
TGI (K-562 leukemia): > 100 µM
TGI (RPMI-8226 leukemia): 94.1 µM
TGI (T-47D breast): > 100 µM
TGI (TK-10 renal): > 100 µM
TGI (NCI/ADR-RES ovarian): > 100 µM
TGI (OVCAR-5 ovarian): > 100 µM
TGI (HOP-62 NSCLC): > 100 µM
TGI (HT29 colon): > 100 µM
TGI (SK-MEL-2 melanoma): > 100 µM
TGI (SF-295 CNS): > 100 µM
TGI (MDA-MB-435): > 100 µM
TGI (HL-60(TB) leukemia): 64.4 µM
TGI (OVCAR-3 ovarian): > 100 µM
TGI (SNB-19 CNS): > 100 µM
TGI (UACC-257 melanoma): > 100 µM
TGI (OVCAR-8 ovarian): > 100 µM
TGI (SK-OV-3 ovarian): > 100 µM
TGI (MOLT-4 leukemia): 76.1 µM
TGI (SR leukemia): > 100 µM
TGI (786-0 renal): > 100 µM
TGI (SN12C renal): > 100 µM
TGI (A549 NSCLC): > 100 µM

C=CCN1C(=O)CNC1=S
TGI (SW-620 colon): > 100 µM
TGI (HCC-2998 colon): > 100 µM
TGI (SF-268 CNS): > 100 µM
TGI (RXF 393 renal): > 100 µM
TGI (PC-3 prostate): > 100 µM
TGI (U251 CNS): > 100 µM
TGI (CCRF-CEM leukemia): 77.6 µM
TGI (BT-549 breast): > 100 µM
TGI (NCI-H23 lung): > 100 µM
TGI (MALME-3M melanoma): > 100 µM
TGI (M14 melanoma): > 100 µM
TGI (SF-539 CNS): > 100 µM
TGI (SNB-75 CNS): > 100 µM
TGI (KM12 colon): > 100 µM
TGI (CAKI-1 renal): > 100 µM
TGI (DU-145 prostate): > 100 µM
TGI (A498 renal): > 100 µM
TGI (HS 578T breast): > 100 µM
TGI (EKVX NSCLC): > 100 µM
TGI (NCI-H460 lung): > 100 µM
TGI (MDA-MB-231 breast): > 100 µM
TGI (SK-MEL-5 melanoma): > 100 µM
TGI (OVCAR-4 ovarian): > 100 µM
TGI (NCI-H226 lung): > 100 µM
TGI (SK-MEL-28 melanoma): > 100 µM
TGI (LOX IMVI melanoma): > 100 µM
TGI (MCF7 breast): > 100 µM
TGI (COLO 205 colon): > 100 µM
TGI (NCI-H522 lung): > 100 µM
TGI (HOP-92 NSCLC): > 100 µM
TGI (UO-31 renal): > 100 µM
TGI (ACHN renal): > 100 µM
TGI (UACC-62 melanoma): > 100 µM
TGI (MDA-N): > 100 µM
TGI (IGROV1 ovarian): > 100 µM
TGI (HCT-116 colon): > 100 µM
TGI (HCT-15 colon): > 100 µM
TGI (K-562 leukemia): > 100 µM
TGI (RPMI-8226 leukemia): > 100 µM
TGI (T-47D breast): > 100 µM
TGI (TK-10 renal): > 100 µM
TGI (NCI/ADR-RES ovarian): > 100 µM
TGI (OVCAR-5 ovarian): > 100 µM
TGI (HOP-62 NSCLC): > 100 µM
TGI (HT29 colon): > 100 µM
TGI (SK-MEL-2 melanoma): > 100 µM
TGI (SF-295 CNS): > 100 µM
TGI (MDA-MB-435): > 100 µM
TGI (HL-60(TB) leukemia): 78.9 µM
TGI (OVCAR-3 ovarian): > 100 µM
TGI (SNB-19 CNS): > 100 µM
TGI (UACC-257 melanoma): > 100 µM
TGI (OVCAR-8 ovarian): > 100 µM
TGI (SK-OV-3 ovarian): > 100 µM
TGI (MOLT-4 leukemia): > 100 µM
TGI (SR leukemia): > 100 µM
TGI (786-0 renal): > 100 µM
TGI (SN12C renal): > 100 µM
TGI (A549 NSCLC): > 100 µM
